Measured values published in ChEMBL document CHEMBL1201862, “PubChem BioAssay data set” (2004).
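How tested: cells in 96-well plates exposed to compound for 48 hours at five concentrations. GI50 = concentration required for 50% inhibition of growth.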 Activity calls are given as the source filed them. No stated cut-off is given here; in the data, active = GI50 up to about 1.1 µM and inactive = higher.

Tests used:
Assay in all cases: DTP human tumour cell line panel, 48 h
HT-29 = tested on: HT-29
UO-31 = tested on: UO-31
ACHN = tested on: ACHN
A549 = tested on: A549
U-251 = tested on: U-251
HCT-116 = tested on: HCT-116
UACC-257 = tested on: UACC-257
RXF 393 = tested on: RXF 393
EKVX = tested on: EKVX
OVCAR-5 = tested on: OVCAR-5
Malme-3M = tested on: Malme-3M
SNB-19 = tested on: SNB-19
OVCAR-3 = tested on: OVCAR-3
NCI-H522 = tested on: NCI-H522
786-0 = tested on: 786-0
NCI-H23 = tested on: NCI-H23
HOP-92 = tested on: HOP-92
SW-620 = tested on: SW-620
HCT-15 = tested on: HCT-15
SNB-75 = tested on: SNB-75

| SMILES | GI50 (HT-29) | GI50 (UO-31) | GI50 (ACHN) | GI50 (A549) | GI50 (U-251) | GI50 (HCT-116) | GI50 (UACC-257) | GI50 (RXF 393) | GI50 (EKVX) | GI50 (OVCAR-5) | GI50 (Malme-3M) | GI50 (SNB-19) | GI50 (OVCAR-3) | GI50 (NCI-H522) | GI50 (786-0) | GI50 (NCI-H23) | GI50 (HOP-92) | GI50 (SW-620) | GI50 (HCT-15) | GI50 (SNB-75) |
| --- | --- | --- | --- | --- | --- | --- | --- | --- | --- | --- | --- | --- | --- | --- | --- | --- | --- | --- | --- | --- |
| Cc1cccc(C(C)C)c1NC(=O)C(=O)CC(=O)c1c(C)[n+]([O-])c2ccccc2[n+]1[O-] | 34.4 µM (inactive) | > 100 µM (inactive) | > 100 µM (inactive) | 36.7 µM (inactive) | 34.1 µM (inactive) | 32.1 µM (inactive) | 23.3 µM (inactive) | 44.2 µM (inactive) | 30.7 µM (inactive) | 45.9 µM (inactive) | 18.7 µM (inactive) | 31.8 µM (inactive) | 3.44 µM (inactive) | 21.9 µM (inactive) | 49.1 µM (inactive) | 18.8 µM (inactive) | 67 µM (inactive) | 33.1 µM (inactive) | 20.9 µM | 28.5 µM (inactive) |
| O=C(CCC1CCCCN1)Nc1ccc2c(c1)C(=O)c1ccc(NC(=O)CCN3CCCCC3)cc1C2=O (stereo not given) | 2.52 µM (inactive) | 1.21 µM (inactive) | 1.45 µM (inactive) | 5.19 µM (inactive) | 8.13 µM (inactive) | 2.03 µM (inactive) | 1.44 µM (inactive) | 0.776 µM (active) | > 10 µM (inactive) | 2.34 µM (inactive) | 1.43 µM (inactive) | 7.19 µM (inactive) | 2.37 µM (inactive) | 1.38 µM (inactive) | 9.75 µM (inactive) | 2.21 µM (inactive) | 2 µM (inactive) | > 10 µM (inactive) | 1.58 µM | 2.62 µM (inactive) |
| Cc1c(C)c(S(=O)(=O)N(CCCCCCN)OCCCN)c(C)c2c1OC(C)(C)CC2 | 5.6 µM (inactive) | 11.8 µM (inactive) | 8.99 µM (inactive) | 4.94 µM (inactive) | 4.46 µM (inactive) | 1.97 µM (inactive) | 11 µM (inactive) | 4.13 µM (inactive) | 6.65 µM (inactive) | > 28.7 µM (inactive) | 2.15 µM (inactive) | 3.96 µM (inactive) | 2.44 µM (inactive) | 4.7 µM (inactive) | 3.22 µM (inactive) | 8.83 µM (inactive) | 4.16 µM (inactive) | 7.45 µM (inactive) | 15.1 µM | 2.99 µM (inactive) |
| O=C(Nc1ccc(Cl)cc1)c1cc(S(=O)(=O)Nc2n[nH]c(Nc3ccc4ccccc4c3)n2)c(SSc2cc(Cl)c(C(=O)Nc3ccc(Cl)cc3)cc2S(=O)(=O)Nc2n[nH]c(Nc3ccc4ccccc4c3)n2)cc1Cl | 20.6 µM (inactive) | 24.2 µM (inactive) | 21.6 µM (inactive) | 41.7 µM (inactive) | 23.7 µM (inactive) | 18.6 µM (inactive) | 33.1 µM (inactive) | 32.5 µM (inactive) | 42.9 µM (inactive) | 20.5 µM (inactive) | 21.6 µM (inactive) | 21.3 µM (inactive) | 26.2 µM (inactive) | 22.6 µM (inactive) | 31.2 µM (inactive) | 24.5 µM (inactive) | 28.2 µM (inactive) | 21.3 µM (inactive) | 21.7 µM | 23 µM (inactive) |
| CN1CCN(c2ccc3nc(-c4cc(O)c5c(nc(CO)n5C)c4O)[nH]c3n2)CC1 | 31.3 µM (inactive) | 55.1 µM (inactive) | 36.1 µM (inactive) | 69.2 µM (inactive) | 15.1 µM (inactive) | 41.9 µM (inactive) | 34.7 µM (inactive) | 28.7 µM (inactive) | 22.9 µM (inactive) | > 100 µM (inactive) | 18.4 µM (inactive) | 52.2 µM (inactive) | 26.1 µM (inactive) | 20.1 µM (inactive) | 52.6 µM (inactive) | 64.3 µM (inactive) | > 100 µM (inactive) | 39.2 µM (inactive) | > 100 µM | 20.6 µM (inactive) |
| NNC(=O)C(O)C(O)C(O)CO (stereo not given) | > 100 µM (inactive) | > 100 µM (inactive) | > 100 µM (inactive) | > 100 µM (inactive) | > 100 µM (inactive) | > 100 µM (inactive) | > 100 µM (inactive) | > 100 µM (inactive) | > 100 µM (inactive) | > 100 µM (inactive) | > 100 µM (inactive) | > 100 µM (inactive) | > 100 µM (inactive) | > 100 µM (inactive) | > 100 µM (inactive) | > 100 µM (inactive) | > 100 µM (inactive) | > 100 µM (inactive) | > 100 µM | > 100 µM (inactive) |
| CN1C2C=C(c3ccccc3)CC1CC2 (stereo not given) | > 100 µM (inactive) | > 100 µM (inactive) | > 100 µM (inactive) | > 100 µM (inactive) | > 100 µM (inactive) | > 100 µM (inactive) | > 100 µM (inactive) | > 100 µM (inactive) | > 100 µM (inactive) | > 100 µM (inactive) | > 100 µM (inactive) | > 100 µM (inactive) | > 100 µM (inactive) | > 100 µM (inactive) | > 100 µM (inactive) | > 100 µM (inactive) | > 100 µM (inactive) | > 100 µM (inactive) | > 100 µM | 56.1 µM (inactive) |
| COc1cc2c(oc(=O)c3c4occc4cc(OC)c23)c2cccc(O)c12 | > 100 µM (inactive) | > 100 µM (inactive) | > 100 µM (inactive) | > 100 µM (inactive) | > 100 µM (inactive) | > 100 µM (inactive) | > 100 µM (inactive) | > 100 µM (inactive) | > 100 µM (inactive) | > 100 µM (inactive) | > 100 µM (inactive) | > 100 µM (inactive) | > 100 µM (inactive) | > 100 µM (inactive) | > 100 µM (inactive) | > 100 µM (inactive) | > 100 µM (inactive) | > 100 µM (inactive) | > 100 µM | 83.6 µM (inactive) |
| O=C(O)C1=C(C(=O)O)N(c2ccncc2)C(c2ccco2)=CC1c1ccccc1[N+](=O)[O-] (stereo not given) | 2.18 µM (inactive) | 8.26 µM (inactive) | 1.72 µM (inactive) | 16.2 µM (inactive) | 4.92 µM (inactive) | 1.83 µM (inactive) | 2.22 µM (inactive) | 7.94 µM (inactive) | 11.2 µM (inactive) | 15 µM (inactive) | 0.925 µM (active) | 12.9 µM (inactive) | 8.17 µM (inactive) | 1.77 µM (inactive) | 2.04 µM (inactive) | 12.4 µM (inactive) | 7.06 µM (inactive) | 8.85 µM (inactive) | 1.81 µM | 7.4 µM (inactive) |
| COc1ccc2c(=O)c3ccoc3n(CC=C(C)C)c2c1 [ACROPHYLLINE] | 47.2 µM (inactive) | 18.2 µM (inactive) | 8.49 µM (inactive) | 7.14 µM (inactive) | > 100 µM (inactive) | 52.7 µM (inactive) | 75.2 µM (inactive) | 28.5 µM (inactive) | 43.9 µM (inactive) | > 100 µM (inactive) | 3.84 µM (inactive) | > 76.6 µM (inactive) | 85.7 µM (inactive) | 2.65 µM (inactive) | > 91.6 µM (inactive) | 46.1 µM (inactive) | > 26.2 µM (inactive) | 97.3 µM (inactive) | 35.6 µM | 26.4 µM (inactive) |
